{"source": "ChEMBL document CHEMBL4602617", "about": "“Discovery and optimization of heteroaryl piperazines as potent and selective PI3Kδ inhibitors” (Bioorg Med Chem Lett, 2020)", "key": {"Rattus norvegicus": {"species": "Rattus norvegicus", "experiment": "Displacement of [3H]GABA from Wistar rat brain GABA at 10 uM after 20 mins by radiometric scintillation analysis relative to control"}, "[1]": {"target": "5-hydroxytryptamine receptor 6 (Homo sapiens) (UniProt P50406)", "experiment": "Displacement of [3H] lysergic acid diethylamide from full length human recombinant 5HT6 receptor expressed in HeLa/E6-7 cells at 10 uM measured after 120 mins by radiometric scintillation analysis relative to control", "type": "cell-based"}, "[2]": {"target": "Cannabinoid receptor 1 (Homo sapiens) (UniProt P21554)", "sequence (P21554 whole entry)": "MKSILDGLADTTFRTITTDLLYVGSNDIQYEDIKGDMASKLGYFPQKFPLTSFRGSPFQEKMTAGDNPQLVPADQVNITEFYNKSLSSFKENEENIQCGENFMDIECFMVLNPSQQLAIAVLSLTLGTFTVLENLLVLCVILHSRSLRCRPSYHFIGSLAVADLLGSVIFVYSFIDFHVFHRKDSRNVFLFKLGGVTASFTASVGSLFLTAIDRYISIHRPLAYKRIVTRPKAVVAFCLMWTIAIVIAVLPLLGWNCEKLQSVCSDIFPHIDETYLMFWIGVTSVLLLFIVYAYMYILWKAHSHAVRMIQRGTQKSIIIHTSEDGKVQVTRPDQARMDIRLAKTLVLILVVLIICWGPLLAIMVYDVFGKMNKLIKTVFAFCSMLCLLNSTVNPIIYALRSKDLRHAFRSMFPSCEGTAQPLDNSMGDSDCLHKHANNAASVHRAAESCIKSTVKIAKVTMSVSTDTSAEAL", "experiment": "Inhibition of human CB1 receptor at 10 uM relative to control"}, "[3]": {"target": "Peroxisome proliferator-activated receptor gamma (Homo sapiens) (UniProt P37231)", "sequence (P37231 whole entry, the tested form may be a part)": "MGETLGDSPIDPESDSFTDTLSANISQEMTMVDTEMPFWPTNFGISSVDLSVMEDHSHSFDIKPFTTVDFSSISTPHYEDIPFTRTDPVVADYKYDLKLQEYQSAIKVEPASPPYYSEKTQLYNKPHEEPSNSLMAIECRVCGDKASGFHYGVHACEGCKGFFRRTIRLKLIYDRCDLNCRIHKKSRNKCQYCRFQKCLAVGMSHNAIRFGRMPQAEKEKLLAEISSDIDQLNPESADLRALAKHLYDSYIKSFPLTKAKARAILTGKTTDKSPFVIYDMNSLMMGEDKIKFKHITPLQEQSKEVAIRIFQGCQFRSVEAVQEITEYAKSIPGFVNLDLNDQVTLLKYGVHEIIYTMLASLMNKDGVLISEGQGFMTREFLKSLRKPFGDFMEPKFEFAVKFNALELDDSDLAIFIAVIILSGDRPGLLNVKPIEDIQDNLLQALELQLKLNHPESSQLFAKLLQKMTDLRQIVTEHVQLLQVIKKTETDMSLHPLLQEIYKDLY", "experiment": "Displacement of [3H]rosiglitazone from […] human recombinant PPARgamma LBD domain expressed in insect cells at 10 uM measured after 24 hrs by radiometric scintillation analysis relative to control"}, "[4]": {"target": "Mitogen-activated protein kinase 1 (Homo sapiens, UniProt P28482)", "sequence (P28482 whole entry)": "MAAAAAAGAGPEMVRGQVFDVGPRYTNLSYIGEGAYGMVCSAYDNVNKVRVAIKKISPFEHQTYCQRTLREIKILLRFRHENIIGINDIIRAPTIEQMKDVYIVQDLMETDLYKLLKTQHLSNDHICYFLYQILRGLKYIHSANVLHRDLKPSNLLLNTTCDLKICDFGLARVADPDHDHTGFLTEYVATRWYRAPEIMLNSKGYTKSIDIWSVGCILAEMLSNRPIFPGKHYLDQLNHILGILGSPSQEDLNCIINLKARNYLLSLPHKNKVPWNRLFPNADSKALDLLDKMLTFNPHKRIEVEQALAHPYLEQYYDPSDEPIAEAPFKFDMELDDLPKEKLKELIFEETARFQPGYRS", "experiment": "Inhibition of recombinant full length human GST-tagged ERK2 expressed in Escherichia coli expression system using serine/threonine-3 peptide as substrate incubated for 60 mins in presence of ATP by Z'-LYTE assay"}, "[5]": {"target": "Protein kinase C beta type (Homo sapiens, UniProt P05771)", "experiment": "Inhibition of recombinant full length human GST-tagged PKCbeta1 expressed in insect expression system using serine/threonine-7 peptide as substrate incubated for 60 mins in presence of ATP by Z'-LYTE assay"}, "[6]": {"experiment": "Protein binding in rat plasma at 0.5 mg/kg, iv or 1 mg/kg, po", "type": "ADME, organism-based", "conditions": "read-out: PPB (converted)"}, "[7]": {"target": "Mitogen-activated protein kinase 12 (Homo sapiens, UniProt P53778)", "experiment": "Inhibition of recombinant full length human His-tagged p38gamma expressed in baculovirus expression system using serine/threonine-3 peptide as substrate incubated for 60 mins in presence of ATP by Z'-LYTE assay"}, "MAO-A": {"target": "MAO-A (Homo sapiens, UniProt P21397)", "sequence (P21397 whole entry)": "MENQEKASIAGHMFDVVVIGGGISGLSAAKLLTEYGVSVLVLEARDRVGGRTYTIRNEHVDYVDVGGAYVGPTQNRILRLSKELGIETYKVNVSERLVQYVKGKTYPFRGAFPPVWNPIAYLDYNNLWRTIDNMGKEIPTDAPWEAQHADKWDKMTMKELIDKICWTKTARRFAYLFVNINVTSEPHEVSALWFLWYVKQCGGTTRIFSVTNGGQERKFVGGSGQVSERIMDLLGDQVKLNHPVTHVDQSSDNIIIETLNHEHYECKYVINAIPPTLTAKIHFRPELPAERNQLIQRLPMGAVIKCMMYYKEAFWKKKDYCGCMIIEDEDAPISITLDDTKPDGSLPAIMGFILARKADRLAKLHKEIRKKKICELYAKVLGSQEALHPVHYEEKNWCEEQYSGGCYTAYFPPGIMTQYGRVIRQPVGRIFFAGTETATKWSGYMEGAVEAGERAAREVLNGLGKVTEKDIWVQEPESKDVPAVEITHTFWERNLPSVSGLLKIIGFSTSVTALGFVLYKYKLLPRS", "experiment": "Inhibition of recombinant full-length human MAO-A expressed in insect cells at 10 uM using kynuramine as substrate after 60 mins by spectrophotometric analysis relative to control", "conditions": "probe kynuramine"}, "[8]": {"target": "Tyrosine-protein kinase SYK (Homo sapiens, UniProt P43405)", "experiment": "Inhibition of recombinant full length human GST-tagged SYK expressed in baculovirus expression system using tyrosine-2 peptide as substrate incubated for 60 mins in presence of ATP by Z'-LYTE assay"}, "[9]": {"target": "G protein-coupled receptor kinase 5 (Homo sapiens, UniProt P34947)", "sequence (P34947 whole entry)": "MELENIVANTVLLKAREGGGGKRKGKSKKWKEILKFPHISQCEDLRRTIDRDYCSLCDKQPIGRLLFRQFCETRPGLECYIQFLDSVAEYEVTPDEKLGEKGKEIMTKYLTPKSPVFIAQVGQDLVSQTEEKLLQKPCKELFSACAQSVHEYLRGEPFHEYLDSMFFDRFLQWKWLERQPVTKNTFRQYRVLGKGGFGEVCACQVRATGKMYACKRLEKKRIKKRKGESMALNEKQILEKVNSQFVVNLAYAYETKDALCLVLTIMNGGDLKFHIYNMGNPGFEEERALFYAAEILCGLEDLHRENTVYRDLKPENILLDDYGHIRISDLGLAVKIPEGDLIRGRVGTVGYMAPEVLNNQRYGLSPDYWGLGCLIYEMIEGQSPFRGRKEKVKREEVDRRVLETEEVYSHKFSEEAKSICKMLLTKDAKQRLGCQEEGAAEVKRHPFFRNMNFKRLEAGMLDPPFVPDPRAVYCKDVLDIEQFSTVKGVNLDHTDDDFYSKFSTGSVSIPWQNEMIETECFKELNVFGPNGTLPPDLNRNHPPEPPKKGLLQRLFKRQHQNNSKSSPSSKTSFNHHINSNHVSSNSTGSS", "experiment": "Inhibition of recombinant full length human GST-tagged GRK5 expressed in baculovirus expression system using serine/threonine-16 peptide as substrate incubated for 60 mins in presence of ATP by Z'-LYTE assay"}, "[10]": {"target": "Serine/threonine-protein kinase MRCK beta (Homo sapiens, UniProt Q9Y5S2)", "experiment": "Inhibition of recombinant human His-tagged MRCKB catalytic domain expressed in baculovirus expression system using serine/threonine-13 peptide as substrate incubated for 60 mins in presence of ATP by Z'-LYTE assay"}, "[11]": {"target": "Progesterone receptor (Homo sapiens) (UniProt P06401)", "experiment": "Inhibition of human progesterone B receptor at 10 uM relative to control"}, "Homo sapiens": {"species": "Homo sapiens", "experiment": "Selectivity index, ratio IC50 for inhibition of recombinant human full-length N-terminal His6-tagged p110beta/untagged full-length p85alpha expressed in baculovirus infected Sf21 cells to ratio IC50 for inhibition of recombinant human full-length N-terminal GST-tagged p110delta/untagged full-length p85alpha expressed in baculovirus infected Sf21 cells"}, "[12]": {"target": "Serine/threonine-protein kinase PLK1 (Homo sapiens, UniProt P53350)", "experiment": "Inhibition of recombinant full length human His-tagged PLK1 expressed in baculovirus expression system using serine/threonine-16 peptide as substrate incubated for 60 mins in presence of ATP by Z'-LYTE assay"}, "[13]": {"target": "Neuropeptide Y receptor type 1 (Homo sapiens) (UniProt P25929)", "sequence (P25929 whole entry)": "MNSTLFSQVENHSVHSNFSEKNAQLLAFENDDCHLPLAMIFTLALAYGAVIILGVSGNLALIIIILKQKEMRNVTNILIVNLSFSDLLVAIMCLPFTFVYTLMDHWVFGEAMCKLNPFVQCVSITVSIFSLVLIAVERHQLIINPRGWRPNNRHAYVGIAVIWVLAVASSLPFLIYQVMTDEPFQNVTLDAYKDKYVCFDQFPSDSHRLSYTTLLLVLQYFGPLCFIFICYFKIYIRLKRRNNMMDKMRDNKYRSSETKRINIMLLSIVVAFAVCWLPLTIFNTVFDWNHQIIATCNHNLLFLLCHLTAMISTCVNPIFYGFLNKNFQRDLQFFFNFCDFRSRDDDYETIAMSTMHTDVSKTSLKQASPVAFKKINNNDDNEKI", "experiment": "Displacement of [[125I]peptide YY from full length human SK-N-MC cell-derived Y1 neuropeptide receptor at 10 uM measured after 60 mins by radiometric scintillation analysis relative to control", "type": "cell-based"}, "[14]": {"target": "Serine/threonine-protein kinase SIK2 (Homo sapiens, UniProt Q9H0K1)", "experiment": "Inhibition of recombinant full length GST-tagged human SNF1LK2 expressed in baculovirus expression system using Ser/Thr 25 as substrate in presence of ATP after 1 hr by Z'LYTE assay"}, "[15]": {"target": "Casein kinase I isoform gamma-1 (Homo sapiens, UniProt Q9HCP0)", "sequence (Q9HCP0 whole entry, canonical isoform)": "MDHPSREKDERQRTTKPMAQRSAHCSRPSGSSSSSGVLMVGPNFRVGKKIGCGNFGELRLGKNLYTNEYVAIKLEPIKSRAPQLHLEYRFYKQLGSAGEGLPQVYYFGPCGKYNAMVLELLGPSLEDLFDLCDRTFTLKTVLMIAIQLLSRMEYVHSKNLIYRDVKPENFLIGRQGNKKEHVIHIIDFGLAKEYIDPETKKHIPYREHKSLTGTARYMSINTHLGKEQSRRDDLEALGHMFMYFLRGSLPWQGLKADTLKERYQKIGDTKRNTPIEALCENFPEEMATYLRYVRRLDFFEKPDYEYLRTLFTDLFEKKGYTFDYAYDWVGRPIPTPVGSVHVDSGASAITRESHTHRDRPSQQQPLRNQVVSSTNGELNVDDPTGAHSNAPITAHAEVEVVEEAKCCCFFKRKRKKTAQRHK", "experiment": "Inhibition of recombinant human full-length GST-tagged CSNK1G1 expressed in baculovirus expression system using FRET-labeled Ser/Thr 05 peptide as substrate measured after 1 hr in presence of ATP by Z'-lyte assay"}, "[16]": {"target": "Tyrosine-protein kinase ABL1 (Homo sapiens, UniProt P00519, G250E)", "experiment": "Inhibition of recombinant full length human His-tagged ABL1 G250E mutant cytoplasmic domain expressed in baculovirus expression system using tyrosine-2 peptide as substrate incubated for 60 mins in presence of ATP by Z'-LYTE assay"}, "[17]": {"target": "C-X-C chemokine receptor type 4 (Homo sapiens) (UniProt P61073)", "experiment": "Displacement of [125I]SDF-1alpha from recombinant full length human recombinant CXCR4 expressed in Chem-1 cells at 10 uM measured after 90 mins by radiometric scintillation analysis relative to control", "type": "cell-based"}, "[18]": {"target": "MAP/microtubule affinity-regulating kinase 4 (Homo sapiens, UniProt Q96L34)", "experiment": "Inhibition of recombinant full length human GST-tagged MARK4 expressed in baculovirus expression system using serine/threonine-25 peptide as substrate incubated for 60 mins in presence of ATP by Z'-LYTE assay"}, "[19]": {"target": "Type-1 angiotensin II receptor (Homo sapiens) (UniProt P30556)", "experiment": "Displacement of [125I][Sar1,Ile8]-AT-II from full length human recombinant AT1 receptor expressed in CHOK1 cells at 10 uM measured after 120 mins by radiometric scintillation analysis relative to control", "type": "cell-based", "conditions": "CHO-K1"}, "[20]": {"target": "Tyrosine-protein kinase Blk (Homo sapiens, UniProt P51451)", "experiment": "Inhibition of recombinant full length human His-tagged BLK cytoplasmic domain expressed in baculovirus expression system using tyrosine-1 peptide as substrate incubated for 60 mins in presence of ATP by Z'-LYTE assay"}, "[21]": {"target": "Tyrosine-protein kinase FRK (Homo sapiens, UniProt P42685)", "sequence (P42685 whole entry)": "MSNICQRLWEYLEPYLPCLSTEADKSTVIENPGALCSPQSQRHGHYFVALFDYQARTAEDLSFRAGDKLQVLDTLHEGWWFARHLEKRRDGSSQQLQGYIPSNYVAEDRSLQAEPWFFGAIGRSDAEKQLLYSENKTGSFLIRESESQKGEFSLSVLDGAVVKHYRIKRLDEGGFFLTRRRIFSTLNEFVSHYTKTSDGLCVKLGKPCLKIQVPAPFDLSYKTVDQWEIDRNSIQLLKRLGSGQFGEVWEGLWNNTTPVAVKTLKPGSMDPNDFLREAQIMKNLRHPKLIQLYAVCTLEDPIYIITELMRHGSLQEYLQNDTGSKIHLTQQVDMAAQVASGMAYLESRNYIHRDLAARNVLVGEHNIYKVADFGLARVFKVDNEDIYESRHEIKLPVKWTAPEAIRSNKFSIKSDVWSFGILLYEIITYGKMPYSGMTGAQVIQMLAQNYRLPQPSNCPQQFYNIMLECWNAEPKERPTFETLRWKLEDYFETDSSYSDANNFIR", "experiment": "Inhibition of recombinant full length GST-tagged human FRK expressed in baculovirus expression system using tyrosine 1 as substrate after 1 hr in presence of ATP by ZYLTE assay"}, "[22]": {"target": "Receptor tyrosine-protein kinase erbB-2 (Homo sapiens, UniProt P04626)", "sequence (P04626 whole entry, the tested form may be a part)": "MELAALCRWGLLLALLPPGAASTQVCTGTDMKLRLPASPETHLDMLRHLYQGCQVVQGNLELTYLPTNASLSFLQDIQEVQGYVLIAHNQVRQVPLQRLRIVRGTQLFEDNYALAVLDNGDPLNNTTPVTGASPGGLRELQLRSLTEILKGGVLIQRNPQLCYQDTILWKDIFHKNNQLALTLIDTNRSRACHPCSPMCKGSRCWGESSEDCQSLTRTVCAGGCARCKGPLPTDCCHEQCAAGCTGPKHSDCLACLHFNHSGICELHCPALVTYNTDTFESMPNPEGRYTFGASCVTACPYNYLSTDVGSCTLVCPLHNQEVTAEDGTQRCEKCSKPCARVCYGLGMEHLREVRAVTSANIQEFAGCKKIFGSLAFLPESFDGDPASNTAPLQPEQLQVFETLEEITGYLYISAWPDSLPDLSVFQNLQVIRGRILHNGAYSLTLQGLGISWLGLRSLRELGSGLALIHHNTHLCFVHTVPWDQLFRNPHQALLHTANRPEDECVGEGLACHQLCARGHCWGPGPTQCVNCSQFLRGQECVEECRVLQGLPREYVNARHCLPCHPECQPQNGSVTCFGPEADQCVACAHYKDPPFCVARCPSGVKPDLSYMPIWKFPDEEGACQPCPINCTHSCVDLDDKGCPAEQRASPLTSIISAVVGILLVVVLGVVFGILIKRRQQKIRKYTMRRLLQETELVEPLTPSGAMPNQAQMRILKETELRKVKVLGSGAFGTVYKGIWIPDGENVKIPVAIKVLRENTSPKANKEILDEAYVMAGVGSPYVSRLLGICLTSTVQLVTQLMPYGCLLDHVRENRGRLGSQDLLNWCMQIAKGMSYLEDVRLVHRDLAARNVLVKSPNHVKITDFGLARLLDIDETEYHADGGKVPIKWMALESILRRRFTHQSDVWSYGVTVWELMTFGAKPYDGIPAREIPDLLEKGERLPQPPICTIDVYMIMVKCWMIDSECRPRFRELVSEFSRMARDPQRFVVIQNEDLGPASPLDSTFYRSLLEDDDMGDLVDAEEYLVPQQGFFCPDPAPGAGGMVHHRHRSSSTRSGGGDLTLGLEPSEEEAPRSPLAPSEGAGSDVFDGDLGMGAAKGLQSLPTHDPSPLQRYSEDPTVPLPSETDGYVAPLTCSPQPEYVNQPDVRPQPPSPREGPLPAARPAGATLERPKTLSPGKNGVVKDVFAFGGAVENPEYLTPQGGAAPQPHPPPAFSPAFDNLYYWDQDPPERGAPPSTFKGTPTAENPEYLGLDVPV", "experiment": "Inhibition of human recombinant ERBB2 (537 to 636 residues) expressed in Escherichia coli using Tyr 06 as substrate after 1 hr in presence of ATP by Z'-LYTE assay"}, "[23]": {"experiment": "Clearance in rat liver microsomes", "type": "ADME, Microsome", "conditions": "read-out: CLH"}, "[24]": {"target": "Mitogen-activated protein kinase kinase kinase kinase 2 (Homo sapiens, UniProt Q12851)", "experiment": "Inhibition of recombinant full length human HIs-tagged MAP4K2 expressed in baculovirus expression system using serine/threonine-7 peptide as substrate incubated for 60 mins in presence of ATP by Z'-LYTE assay"}}, "data": [{"smiles": "C[C@@H]1C[C@H]1C(=O)N1CCN(c2cnc(C#N)c(-c3cnn(C)c3)n2)C[C@H]1C", "values": [{"measurement": "inhibition", "setting": "Rattus norvegicus", "result": 18, "unit": "%"}, {"measurement": "inhibition", "setting": "[1]", "result": 7, "unit": "%"}, {"measurement": "inhibition", "setting": "[2]", "result": -1, "unit": "%"}, {"measurement": "inhibition", "setting": "[3]", "result": 7, "unit": "%"}, {"measurement": "IC50", "setting": "[4]", "result": "> 100", "unit": "µM"}, {"measurement": "IC50", "setting": "[5]", "result": "> 100", "unit": "µM"}, {"measurement": "fraction unbound", "setting": "[6]", "result": 0.152}, {"measurement": "IC50", "setting": "[7]", "result": "> 100", "unit": "µM"}, {"measurement": "inhibition at 1 h, 10 µM", "setting": "MAO-A", "result": 11, "unit": "%"}, {"measurement": "IC50", "setting": "[8]", "result": "> 100", "unit": "µM"}, {"measurement": "IC50", "setting": "[9]", "result": "> 100", "unit": "µM"}, {"measurement": "IC50", "setting": "[10]", "result": "> 100", "unit": "µM"}, {"measurement": "inhibition", "setting": "[11]", "result": 0, "unit": "%"}, {"measurement": "Ratio IC50", "setting": "Homo sapiens", "result": 2990}, {"measurement": "IC50", "setting": "[12]", "result": "> 100", "unit": "µM"}, {"measurement": "inhibition", "setting": "[13]", "result": 10, "unit": "%"}, {"measurement": "IC50", "setting": "[14]", "result": "> 100", "unit": "µM"}, {"measurement": "IC50", "setting": "[15]", "result": "> 100", "unit": "µM"}, {"measurement": "IC50", "setting": "[16]", "result": "> 100", "unit": "µM"}, {"measurement": "inhibition", "setting": "[17]", "result": 5, "unit": "%"}, {"measurement": "IC50", "setting": "[18]", "result": "> 100", "unit": "µM"}, {"measurement": "inhibition", "setting": "[19]", "result": -4, "unit": "%"}, {"measurement": "IC50", "setting": "[20]", "result": "> 100", "unit": "µM"}, {"measurement": "IC50", "setting": "[21]", "result": "> 100", "unit": "µM"}, {"measurement": "IC50", "setting": "[22]", "result": "> 100", "unit": "µM"}, {"measurement": "CLint scaled", "setting": "[23]", "result": 47, "unit": "mL/min/kg"}, {"measurement": "IC50", "setting": "[24]", "result": "> 100", "unit": "µM"}]}]}
